From patent US5126348A, “Bioavailability enhancers” (priority 1989, dated 1992)
Like-named read-outs stand apart in the source and are kept apart here.

Tests used:
[1] = in vivo
Description: Venous blood samples were taken at time intervals listed below. […] After administration to the human volunteer, blood samples were taken at the same time intervals as the previous test. Relative salicylic acid concentrations of the samples were compared using fluorescence units as determined by spectrofluorometer.

[2] = parameters: species or system beagle dog; conditions: dog, in vivo
[3] = Theophylline blood levels as a function of time after oral administration, with and without nicotinic acid (Example 1)
Description: FIG. 1 is a graph showing theophylline blood levels as a function of time after administration, comparing theophylline in combination with nicotinic acid with theophylline alone.

[4] = cited from earlier work
[5] = cited from earlier work; remark: listed apart in the source
[6] = cited from earlier work; remark: listed apart in the source

CC(=O)Oc1ccccc1C(=O)O [ASA, acetylsalicylic acid]
bioavailability of aspirin with nicotinic acid [1]: enhanced | absorption induced by reserpine [2]: near-complete absorption | elimination kinetics, reserpine-treated vs. non-pretreated dogs [2]: similar | plasma concentration of SA, reserpine-treated vs. non-pretreated dogs [2]: considerably higher at each time interval | time of peak plasma concentrations of SA, reserpine-treated vs. non-pretreated dogs [2]: at the same time in both tests | % of maximum concentration ([2]; 10 min): 24% | plasma SA concentration ([2]; 10 min): 19.9 µg/mL | % of maximum concentration ([2]; 20 min): 47% | % of maximum concentration ([2]; 30 min): 70% | plasma SA concentration ([2]; 60 min): 72.8 µg/mL | % of maximum concentration ([2]; 120 min): 100% | plasma SA concentration (max) ([2]; 120 min): 81.4 µg/mL | Total area under the plasma level curve, increase over non-pretreated dogs ([2]; 480 min): 13.2% | total AUC, increase ([2]; iv): 14.5% | % of Dose of ASA Absorbed (using IV ASA as 100% absorption) ([2]; po): 87.5%

Cn1c(=O)c2[nH]cnc2n(C)c1=O [Theophylline, theophylline]
concentration at 29 min ([3]; human, in vivo, po, 300 mg): < 500 ng/mL | concentration at 1.05 h ([3]; human, in vivo, po, 300 mg): 2200 ng/mL | concentration at 1.55 h ([3]; human, in vivo, po, 300 mg): 4400 ng/mL | concentration at 121 min ([3]; human, in vivo, po, 300 mg): 5300 ng/mL | concentration at 2.5 h ([3]; human, in vivo, po, 300 mg): 7000 ng/mL | concentration at 184 min ([3]; human, in vivo, po, 300 mg): 7200 ng/mL | Blood levels of theophylline ([3]; time after administration 0, oral, 300 mg theophylline, with or without 100 mg niacin): < 50 ng/mL

NC(=O)c1cccnc1 [niacinamide]
vasodilation or flushing ([4]; niacinamide form): does not cause the vasodilation or flushing

O=C(O)c1cccnc1 [nicotinic acid]
toxicity ([4]; even at high dosages): relatively harmless | low density lipids and cholesterol in the blood ([4]; high doses (3-6 g/day)): lowers | peripheral vascular resistance ([4]; high doses (3-6 g/day)): decreases | stroke volume of the heart ([4]; high doses (3-6 g/day)): increases | tolerated dosage ([4]; human, in vivo): up to 6 grams per day | effects on blood pressure ([4]; in vivo): only minor effects | heart rate and cardiac output ([4]; in vivo): increases | peripheral blood flow ([4]; in vivo): increases | flushing effect with acetylsalicylic acid ([4]; with acetylsalicylic acid): reduced | absorption with food ingestion [5]: not affected

CC(C)NCC(O)COc1cccc2ccccc12 (stereo not shown) [propranolol]
bioavailability with hydralazine [6]: increased bioavailability
